Source: patent publication US20170304336A1, “COMBINATION” (priority 2014, published 2017)

Key:
Assay type in all cases: in vivo, male rats of Wistar line
[1] = test system: experimental rat hypercholesterolemia model; test: Lipid spectrum of blood in experimental rat hypercholesterolemia model
Description: The animals used were male rats of Wistar line. […] The proposed model using rats as the experimental animals is a reproducible standard model for evaluation of hypocholesterolemic effect.
(§1) Evaluation of hypocholesterolemic efficacy and safety of pharmaceutical combination was performed in vivo in experimental rat hypercholesterolemia model.
(§2) For 90 days the studied animals received hypercholesterol diet for pathology induction. The diet included Cholesterol+Cholic acid+Overheated fats (deep fat).
For 90 days the animals received the said ration ad libitum (30 g feed per animal). Development of hypercholesterolemia in animals was evaluated based on changes in lipid spectrum parameters on Day 30 of the study.
(§3) Drugs were introduced intragastrically with an esophageal bougie daily on Day 31-90 of the study at the same time of day.
Biochemical parameters and activity of blood serum enzymes (total cholesterol (CHS), LDL-CHS, HDL-CHS, triglycerides.
1.0-1.84 ml blood samples for the study of biochemical parameters were taken from tail vein of rats. Blood samples were taken from the animals after 14-15-hour's fasting at same time of day (9.00-11.00). For biochemical parameters tests a Biochemical Analyzer A-25 (Biosystems, Spain) was used. […]

[2] = test system: experimental rat hypercholesterolemia model; test: Biochemical blood analysis (drug toxicity parameters) in rat hypercholesterolemia model
Description: as §1, §2, §3
Biochemical parameters and activity of serum enzymes (aspartate- and alanine aminotransferase, creatine phosphokinase, urea, serum amylase, total bilirubin, direct bilirubin, indirect bilirubin, serum glucose, cations K^+, Na^+).
1.0-1.84 ml blood samples for the study of biochemical parameters were taken from tail vein of rats. Blood samples were taken from the animals after 14-15-hour's fasting at same time of day (9.00-11.00). For biochemical parameters tests a Biochemical Analyzer A-25 (Biosystems, Spain) was used.
Vol. 4. pp. 1794-1798; Pearlman F C and Lee R T Y. Clin Chem 1974, 20, 447-453; Zoppi F et al, Peracino A., Fenili D., Marcovina S. and Ramella C. Giorn It Chim Cl. […] C. et al Clin Chem. 1974. Vol. 20. pp. 470-475; and in Meiattini F., et al, Clin Chem. 1978. Vol. 24. pp. 2161-2165 (total cholesterol); Warnick G R et al. Clin Chem 2001, 47, 1579-96 (HDL/LDL); Bucolo G and David H. Clin Chem. 1973.-Vol. 19. pp. 476-482; and in Fossati P. and, Prencipe L., Clin Chem. 1982. Vol. 28. pp. 2077-2080 (triglycerides); Trinder P. Ann Clin Biochem. 1969. Vol. 6. pp. 24-27).

[3] = Mass coefficients of organs (pancreas, liver, kidneys) of rats; conditions: M ± m; for weight coefficient, Kidneys / weight coefficient, Liver: in %
Description: To calculate mass coefficients the pancreas, liver and kidneys of the animals were extracted. The organs were weighed and the mass coefficients were calculated by the following formula:
Mass coefficient=(organ weight/animal body weight)×100%

[4] = Day 30 of treatment (Day 60 of study), dose 108 mg
[5] = Day 60 of treatment (Day 90 of study), dose 108 mg
[6] = blood, Day 60 of the treatment (Day 90 of the study), PV + GtA 40 + 108 mg, PV 20 mg, GtA 108 mg
[7] = PV + GtA 40 + 108 mg, PV 40 mg, GtA 108 mg
[8] = Day 30 of treatment (Day 60 of study), dose 20 mg
[9] = Day 30 of treatment (Day 60 of study), dose 40 mg
[10] = Day 60 of treatment (Day 90 of study), dose 20 mg
[11] = Day 60 of treatment (Day 90 of study), dose 40 mg
[12] = blood, Day 60 of the treatment (Day 90 of the study), LV + SGA 20 + 108 mg, LV 20 mg, SGA 108 mg
[13] = LV + SGA 20 + 108 mg, LV 20 mg, SGA 108 mg

SMILES: CC1(C)[C@@H](O)CC[C@]2(C)[C@H]3C(=O)C=C4[C@@H]5C[C@@](C)(C(=O)O)CC[C@]5(C)CC[C@@]4(C)[C@]3(C)CC[C@@H]12 [GtA, (2S,4aS,6aS,6bR,8aR,10S,12aS,12bR,14bR)-10-hydroxy-2,4a,6a,6b,9,9,12a-heptamethyl-13-oxo-1,2,3,4,4a,5,6,6a,6b,7,8,8a,9,10,11,12,12a,12b,13,14b-icosahydropicene-2-carboxylic acid]
- HDL CHS [1, 4]: 0.51 ± 0.04 mmol/L
- LDL CHS [1, 4]: 4.40 ± 0.4 mmol/L
- TG [1, 4]: 1.6 ± 0.11 mmol/L
- Total CHS [1, 4]: 4.9 ± 0.5 mmol/L
- HDL CHS [1, 5]: 0.61 ± 0.03 mmol/L
- LDL CHS [1, 5]: 4.24 ± 0.4 mmol/L
- TG [1, 5]: 1.5 ± 0.11 mmol/L
- Total CHS [1, 5]: 4.5 ± 0.5 mmol/L
- ALT [2, 4]: 97 U/l
- AST [2, 4]: 130 U/l
- Amylase [2, 4]: 622 U/l
- Bilirubin direct [2, 4]: 1.1 mg/dL
- Bilirubin indirect [2, 4]: 1.7 mg/dL
- Bilirubin total [2, 4]: 3.2 mg/dL
- CPK [2, 4]: 390 U/l
- Glucose [2, 4]: 119 mg/dL
- Potassium [2, 4]: 2.8 mM
- Urea [2, 4]: 6.5 mmol/L
- ALT [2, 6]: 101 U/l
- AST [2, 6]: 120 U/l
- Amylase [2, 6]: 599 U/l
- Bilirubin direct [2, 6]: 1.2 mg/dL
- Bilirubin indirect [2, 6]: 1.8 mg/dL
- Bilirubin total [2, 6]: 2.7 mg/dL
- CPK [2, 6]: 300 U/l
- Glucose [2, 6]: 112 mg/dL
- Potassium [2, 6]: 3.1 mM
- Urea [2, 6]: 5.5 mmol/L
- weight coefficient, Pancreas [3, 7]: 0.21 ± 0.01^2
- weight coefficient, Kidneys [3, 7]: 0.80 ± 0.02
- weight coefficient, Liver [3, 7]: 4.43 ± 0.10

SMILES: CC[C@H](C)C(=O)O[C@H]1C[C@@H](C)C=C2C=C[C@H](C)[C@H](CC[C@@H]3C[C@@H](O)CC(=O)O3)[C@H]21 [LV, (1S,3R,7S,8S,8aR)-8-{2-[(2R,4R)-4-hydroxy-6-oxooxan-2-yl]ethyl}-3,7-dimethyl-1,2,3,7,8,8a-hexahydronaphthalen-1-yl (2S)-2-methylbutanoate]
- HDL CHS [1, 8]: 0.64 ± 0.05 mmol/L
- LDL CHS [1, 8]: 4.25 ± 0.44 mmol/L
- TG [1, 8]: 1.31 ± 0.12 mmol/L
- Total CHS [1, 8]: 5.6 ± 0.1 mmol/L
- HDL CHS [1, 9]: 0.89 ± 0.01 mmol/L
- LDL CHS [1, 9]: 3.82 ± 0.20 mmol/L
- TG [1, 9]: 1.22 ± 0.03 mmol/L
- Total CHS [1, 9]: 4.5 ± 0.2 mmol/L
- HDL CHS [1, 10]: 0.74 ± 0.04 mmol/L
- LDL CHS [1, 10]: 3.92 ± 0.43 mmol/L
- TG [1, 10]: 1.21 ± 0.11 mmol/L
- Total CHS [1, 10]: 4.8 ± 0.2 mmol/L
- HDL CHS [1, 11]: 0.90 ± 0.01 mmol/L
- LDL CHS [1, 11]: 3.43 ± 0.23 mmol/L
- TG [1, 11]: 1.20 ± 0.03 mmol/L
- Total CHS [1, 11]: 4.1 ± 0.3 mmol/L
- ALT [2, 8]: 160 U/l
- AST [2, 8]: 183 U/l
- Amylase [2, 8]: 646 U/l
- Bilirubin direct [2, 8]: 2.1 mg/dL
- Bilirubin indirect [2, 8]: 2.1 mg/dL
- Bilirubin total [2, 8]: 4.6 mg/dL
- CPK [2, 8]: 510 U/l
- Glucose [2, 8]: 139 mg/dL
- Sodium [2, 8]: 128 mmol
- Urea [2, 8]: 7.3 mmol/L
- ALT [2, 12]: 141 U/l
- AST [2, 12]: 190 U/l
- Amylase [2, 12]: 597 U/l
- Bilirubin direct [2, 12]: 4.4 mg/dL
- Bilirubin indirect [2, 12]: 2.3 mg/dL
- Bilirubin total [2, 12]: 4.4 mg/dL
- CPK [2, 12]: 597 U/l
- Glucose [2, 12]: 148 mg/dL
- Sodium [2, 12]: 128 mmol
- Urea [2, 12]: 6.0 mmol/L
- weight coefficient, Pancreas ([3]; LV 40 mg): 0.48 ± 0.03^1
- weight coefficient, Kidneys ([3]; LV 40 mg): 0.77 ± 0.01
- weight coefficient, Liver ([3]; LV 40 mg): 4.46 ± 0.15
- weight coefficient, Pancreas [3, 13]: 0.35 ± 0.04
- weight coefficient, Kidneys [3, 13]: 0.74 ± 0.02
- weight coefficient, Liver [3, 13]: 4.45 ± 0.11

SMILES: CC1(C)[C@@H](O[C@H]2O[C@H](C(=O)O)[C@@H](O)[C@H](O)[C@H]2O[C@@H]2O[C@H](C(=O)O)[C@@H](O)[C@H](O)[C@H]2O)CC[C@]2(C)[C@H]3C(=O)C=C4[C@@H]5C[C@@](C)(C(=O)O)CC[C@]5(C)CC[C@@]4(C)[C@]3(C)CC[C@@H]12.[Na+] [SGA, sodium glycyrrhizinate]
- HDL CHS [1, 4]: 0.53 ± 0.04 mmol/L
- LDL CHS [1, 4]: 4.30 ± 0.41 mmol/L
- TG [1, 4]: 1.3 ± 0.11 mmol/L
- Total CHS [1, 4]: 5.0 ± 0.4 mmol/L
- HDL CHS [1, 5]: 0.63 ± 0.03 mmol/L
- LDL CHS [1, 5]: 4.00 ± 0.3 mmol/L
- TG [1, 5]: 1.6 ± 0.11 mmol/L
- Total CHS [1, 5]: 5.0 ± 0.4 mmol/L
- ALT [2, 4]: 91 U/l
- AST [2, 4]: 125 U/l
- Amylase [2, 4]: 600 U/l
- Bilirubin direct [2, 4]: 3.0 mg/dL
- Bilirubin indirect [2, 4]: 1.2 mg/dL
- Bilirubin total [2, 4]: 4.3 mg/dL
- CPK [2, 4]: 308 U/l
- Glucose [2, 4]: 110 mg/dL
- Potassium [2, 4]: 2.5 mM
- Sodium [2, 4]: 132 mmol
- Urea [2, 4]: 6.8 mmol/L
- ALT [2, 12]: 102 U/l
- AST [2, 12]: 123 U/l
- Amylase [2, 12]: 603 U/l
- Bilirubin direct [2, 12]: 2.0 mg/dL
- Bilirubin indirect [2, 12]: 1.9 mg/dL
- Bilirubin total [2, 12]: 2.9 mg/dL
- CPK [2, 12]: 331 U/l
- Glucose [2, 12]: 120 mg/dL
- Potassium [2, 12]: 3.2 mM
- Sodium [2, 12]: 121 mmol
- Urea [2, 12]: 5.2 mmol/L
- weight coefficient, Pancreas [3, 13]: 0.22 ± 0.01^2
- weight coefficient, Kidneys [3, 13]: 0.81 ± 0.02
- weight coefficient, Liver [3, 13]: 4.42 ± 0.10
